{"source": "patent US20140051737A1", "about": "“METHODS FOR THE TREATMENT AND DIAGNOSTIC OF PULMONARY ARTERIAL HYPERTENSION” (UNIVERSITE LAVAL, priority 2011, published 2014)", "origin": "cited, not measured here", "test_system": "patients carrying the BRCA1 or BRCA2 mutation", "settings": "cited from earlier work", "data": [{"smiles": "O=C(c1cc(Cc2n[nH]c(=O)c3ccccc23)ccc1F)N1CCN(C(=O)C2CC2)CC1", "note": "[olaparib]", "values": [{"measurement": "objective antitumor activity", "result": "only showed objective antitumor activity in patients carrying the BRCA1 or BRCA2 mutation"}]}]}
